Results taken from ChEMBL document CHEMBL4699561, “Cytotoxic Germacranolides from the Whole Plant of Carpesium minus” (J Nat Prod, 2020).

Tests used:
MDA-MB-231 = test: Cytotoxicity against human MDA-MB-231 cells assessed as reduction in cell viability by MTT assay; type: functional, cell-based
A549 = test: Cytotoxicity against human A549 cells assessed as reduction in cell viability by MTT assay; type: functional, cell-based
HCT-116 [1] = test: Cytotoxicity against human HCT-116 cells assessed as reduction in cell viability by MTT assay; type: functional, cell-based
HCT-116 [2] = test: Induction of apoptosis in human HCT-116 cells assessed as apoptotic cells after 24 hrs by Annexin V-FITC/propidium iodide staining based flow cytometric analysis; type: functional, cell-based; conditions: dose microM 4-16, time 24.0 hrs
HCT-116 [3] = test: Induction of apoptosis in human HCT-116 cells assessed as necrotic cells at 4 uM after 24 hrs by Annexin V-FITC/propidium iodide staining based flow cytometric analysis (reference value: 0.4%); type: functional
HCT-116 [4] = test: Induction of apoptosis in human HCT-116 cells assessed as early apoptotic cells at 16 uM after 24 hrs by Annexin V-FITC/propidium iodide staining based flow cytometric analysis (reference value: 5.3%); type: functional
HCT-116 [5] = test: Induction of apoptosis in human HCT-116 cells assessed as viable cells at 16 uM after 24 hrs by Annexin V-FITC/propidium iodide staining based flow cytometric analysis (reference value: 87.8%); type: functional; conditions: read-out: Activity
HCT-116 [6] = test: Induction of apoptosis in human HCT-116 cells assessed as early apoptotic cells at 4 uM after 24 hrs by Annexin V-FITC/propidium iodide staining based flow cytometric analysis (reference value: 5.3%); type: functional
HCT-116 [7] = test: Induction of apoptosis in human HCT-116 cells assessed as increase in cleaved-caspace-7 protein expression after 24 hrs by Western blot analysis; type: functional, cell-based; conditions: dose microM 4-16, time 24.0 hrs
HCT-116 [8] = test: Induction of apoptosis in human HCT-116 cells assessed as viable cells at 4 uM after 24 hrs by Annexin V-FITC/propidium iodide staining based flow cytometric analysis (reference value: 87.8%); type: functional; conditions: read-out: Activity
HCT-116 [9] = test: Induction of apoptosis in human HCT-116 cells assessed as necrotic cells at 8 uM after 24 hrs by Annexin V-FITC/propidium iodide staining based flow cytometric analysis (reference value: 0.4%); type: functional
HCT-116 [10] = test: Induction of apoptosis in human HCT-116 cells assessed as necrotic cells at 16 uM after 24 hrs by Annexin V-FITC/propidium iodide staining based flow cytometric analysis (reference value: 0.4%); type: functional
HCT-116 [11] = test: Induction of apoptosis in human HCT-116 cells assessed as increase in cleaved-caspace-3 protein expression after 24 hrs by Western blot analysis; type: functional, cell-based; conditions: dose microM 4-16, time 24.0 hrs
HCT-116 [12] = test: Induction of apoptosis in human HCT-116 cells assessed as viable cells at 8 uM after 24 hrs by Annexin V-FITC/propidium iodide staining based flow cytometric analysis (reference value: 87.8%); type: functional; conditions: read-out: Activity
HCT-116 [13] = test: Induction of apoptosis in human HCT-116 cells assessed as increase in cleaved-PARP protein expression after 24 hrs by Western blot analysis; type: functional, cell-based; conditions: dose microM 4-16, time 24.0 hrs
HCT-116 [14] = test: Induction of apoptosis in human HCT-116 cells assessed as late apoptotic cells at 16 uM after 24 hrs by Annexin V-FITC/propidium iodide staining based flow cytometric analysis (reference value: 6.5%); type: functional
HCT-116 [15] = test: Induction of apoptosis in human HCT-116 cells assessed as late apoptotic cells at 8 uM after 24 hrs by Annexin V-FITC/propidium iodide staining based flow cytometric analysis (reference value: 6.5%); type: functional
HCT-116 [16] = test: Induction of apoptosis in human HCT-116 cells assessed as late apoptotic cells at 4 uM after 24 hrs by Annexin V-FITC/propidium iodide staining based flow cytometric analysis (reference value: 6.5%); type: functional
HCT-116 [17] = test: Induction of apoptosis in human HCT-116 cells assessed as early apoptotic cells at 8 uM after 24 hrs by Annexin V-FITC/propidium iodide staining based flow cytometric analysis (reference value: 5.3%); type: functional

| SMILES | IC50 (MDA-MB-231) [µM] | IC50 (A549) [µM] | IC50 (HCT-116 [1]) [µM] | other results |
| --- | --- | --- | --- | --- |
| C=C1C(=O)O[C@@H]2[C@@H](OC(=O)[C@H](C)CC)[C@@](C)(O)CCC[C@@H](C)C(=O)C[C@@H]12 | 10.6 | 24.7 | 5.3 | – |
| C=C1C(=O)O[C@@H]2[C@@H](OC(=O)C(C)C)[C@@](C)(O)C[C@H]3C[C@@H](C)[C@@](O)(C[C@@H]12)O3 | > 50 | > 50 | 20.2 | – |
| C=C1C(=O)O[C@@H]2[C@@H](OC(=O)[C@@H](C)CC)[C@@](C)(O)CCC[C@@H](C)C(=O)C[C@@H]12 | 14.6 | 31.9 | 6.7 | – |
| C=C1C(=O)O[C@@H]2[C@@H](OC(=O)/C(C)=C\C)[C@@](C)(O)CCC[C@@H](C)C(=O)C[C@@H]12 | 4.7 | 14.1 | 3.2 | – |
| C=C1C(=O)O[C@@H]2[C@@H](OC(=O)C(C)C)[C@@](C)(O)CCC[C@@H](C)C(=O)C[C@@H]12 | 11.6 | 26.6 | 8.5 | – |
| C=C1C(=O)O[C@@H]2[C@@H](OC(=O)CC(C)C)[C@@](C)(O)CCC[C@@H](C)C(=O)C[C@@H]12 | 6.1 | 8.4 | 3.7 | Activity (HCT-116 [2]): Dose-dependent effect; Activity (HCT-116 [3]): 0.4%; Activity (HCT-116 [4]): 10.5%; viability at 16 µM (HCT-116 [5]): 73.9%; Activity (HCT-116 [6]): 5.2%; Activity (HCT-116 [7]): Dose-dependent effect; viability at 4 µM (HCT-116 [8]): 87.1%; Activity (HCT-116 [9]): 0.6%; Activity (HCT-116 [10]): 0.6%; Activity (HCT-116 [11]): Dose-dependent effect; viability at 8 µM (HCT-116 [12]): 83.8%; Activity (HCT-116 [13]): Dose-dependent effect; Activity (HCT-116 [14]): 15%; Activity (HCT-116 [15]): 8.3%; Activity (HCT-116 [16]): 7.3%; Activity (HCT-116 [17]): 7.3% |
| C=C1C(=O)O[C@@H]2[C@@H](OC(=O)[C@@H](C)CC)[C@@](C)(O)C[C@H]3C[C@@H](C)[C@@](O)(C[C@@H]12)O3 | 23.7 | 24.3 | 14 | – |
| C=C1C(=O)O[C@@H]2[C@@H](OC(=O)/C(C)=C\C)[C@@](C)(O)C[C@H]3C[C@@H](C)[C@@](O)(C[C@@H]12)O3 | 23.4 | 17.3 | 17.8 | – |
| C=C1C(=O)O[C@@H]2[C@@H](OC(=O)CC(C)C)[C@@](C)(O)C[C@H]3C[C@@H](C)[C@@](O)(C[C@@H]12)O3 | 27.9 | 24.5 | 17.2 | – |
| C=C1C(=O)O[C@@H]2[C@@H](OC(=O)[C@H](C)CC)[C@@](C)(O)C[C@H]3C[C@@H](C)[C@@](O)(C[C@@H]12)O3 | 48.9 | 37.6 | 21.4 | – |
